Laboratory results taken from patent publication US11427567B2, “Imidazolyl pyrimidinylamine compounds as CDK2 inhibitors” (Incyte Corporation, priority 2019, dated 2022).

Each compound was assayed against CDK2/Cyclin E1 (Homo sapiens (Human), UniProt P24941) (assay: CDK2/Cyclin E1 HTRF enzyme activity assay (Example A)). Details: 1 mM ATP.
Assay type: biochemical
Procedure: Assays were conducted in white 384-well polystyrene plates in a final reaction volume of 8 μL. […] HTRF signals were read after 1 hour at room temperature on a PHERAstar FS plate reader (BMG Labtech). Data was analyzed with IDBS XLFit and GraphPad Prism 5.0 software using a three or four parameter dose response curve to determine IC50 for each compound.

SMILES | IC50 [nM]
CS(=O)(=O)N1CCC(Nc2ncc(C(F)(F)F)c(-c3cn(-c4ccc(Cn5cnnc5)cc4Cl)cn3)n2)CC1 [Example 239, 4-(1-(4-((4H-1,2,4-Triazol-4-yl)methyl)-2-chlorophenyl)-1H-imidazol-4-yl)-N-(1-(methylsulfonyl)piperidin-4-yl)-5-(trifluoromethyl)pyrimidin-2-amine] | ≤ 50
CS(=O)(=O)N1CCC(Nc2ncc(C(F)(F)F)c(-c3cn(-c4ccc(Cn5cncn5)cc4Cl)cn3)n2)CC1 [Example 240, 4-(1-(4-((1H-1,2,4-Triazol-1-yl)methyl)-2-chlorophenyl)-1H-imidazol-4-yl)-N-(1-(methylsulfonyl)piperidin-4-yl)-5-(trifluoromethyl)pyrimidin-2-amine] | ≤ 50
CS(=O)(=O)N1CCC(Nc2ncc(C(F)(F)F)c(-c3cn(-c4ccc(Cn5nccn5)cc4Cl)cn3)n2)CC1 [Example 241, 4-(1-(4-((2H-1,2,3-Triazol-2-yl)methyl)-2-chlorophenyl)-1H-imidazol-4-yl)-N-(1-(methylsulfonyl)piperidin-4-yl)-5-(trifluoromethyl)pyrimidin-2-amine] | ≤ 50
CS(=O)(=O)N1CCC(Nc2ncc(C(F)(F)F)c(-c3cn(-c4ccc(Cn5ccnn5)cc4Cl)cn3)n2)CC1 [Example 242, 4-(1-(4-((1H-1,2,3-Triazol-1-yl)methyl)-2-chlorophenyl)-1H-imidazol-4-yl)-N-(1-(methylsulfonyl)piperidin-4-yl)-5-(trifluoromethyl)pyrimidin-2-amine] | ≤ 50
CS(=O)(=O)N1CCC(Nc2ncc(C(F)(F)F)c(-c3cn(-c4ccc(Cn5ncnn5)cc4Cl)cn3)n2)CC1 [Example 243, 4-(1-(4-((2H-Tetrazol-2-yl)methyl)-2-chlorophenyl)-1H-imidazol-4-yl)-N-(1-(methylsulfonyl)piperidin-4-yl)-5-(trifluoromethyl)pyrimidin-2-amine] | ≤ 50
CS(=O)(=O)N1CCC(Nc2ncc(C(F)(F)F)c(-c3cn(-c4ccc(Cn5cnnn5)cc4Cl)cn3)n2)CC1 [Example 244, 4-(1-(4-((1H-Tetrazol-1-yl)methyl)-2-chlorophenyl)-1H-imidazol-4-yl)-N-(1-(methylsulfonyl)piperidin-4-yl)-5-(trifluoromethyl)pyrimidin-2-amine] | ≤ 50
CNCc1ccc(-n2cnc(-c3nc(NC4CCN(S(C)(=O)=O)CC4)ncc3C(F)(F)F)c2)c(C(F)F)n1 [Example 245, 4-(1-(2-(Difluoromethyl)-6-((methylamino)methyl)pyridin-3-yl)-1H-imidazol-4-yl)-N-(1-(methylsulfonyl)piperidin-4-yl)-5-(trifluoromethyl)pyrimidin-2-amine] | ≤ 50
CN(C)Cc1ccc(-n2cnc(-c3nc(NC4CCN(S(C)(=O)=O)CC4)ncc3C(F)(F)F)c2)c(C(F)(F)F)n1 [Example 246, 4-(1-(6-((Dimethylamino)methyl)-2-(trifluoromethyl)pyridin-3-yl)-1H-imidazol-4-yl)-N-(1-(methylsulfonyl)piperidin-4-yl)-5-(trifluoromethyl)pyrimidin-2-amine] | ≤ 50
CS(=O)(=O)N1CCC(Nc2ncc(C(F)(F)F)c(-c3cn(-c4ccc(CN5CCC5)nc4C(F)(F)F)cn3)n2)CC1 [Example 247, 4-(1-(6-(Azetidin-1-ylmethyl)-2-(trifluoromethyl)pyridin-3-yl)-1H-imidazol-4-yl)-N-(1-(methylsulfonyl)piperidin-4-yl)-5-(trifluoromethyl)pyrimidin-2-amine] | ≤ 50
CC(O)c1ccc(-n2cnc(-c3nc(NC4CCN(S(C)(=O)=O)CC4)ncc3C(F)(F)F)c2)c(Cl)c1 (centres unmarked) [Example 248, 1-(3-Chloro-4-(4-(2-((1-(methylsulfonyl)piperidin-4-yl)amino)-5-(trifluoromethyl)pyrimidin-4-yl)-1H-imidazol-1-yl)phenyl)ethan-1-ol] | ≤ 50
CNCc1ccc(-n2cnc(-c3nc(NC4CCN(S(C)(=O)=O)CC4)ncc3C(F)(F)F)c2)c(C#N)c1 [Example 249, 5-((Methylamino)methyl)-2-(4-(2-((1-(methylsulfonyl)piperidin-4-yl)amino)-5-(trifluoromethyl)pyrimidin-4-yl)-1H-imidazol-1-yl)benzonitrile] | ≤ 50
CN(C)Cc1ccc(-n2cnc(-c3nc(NC4CCN(S(C)(=O)=O)CC4)ncc3C(F)(F)F)c2)c(C(F)(F)F)c1 [Example 250, 4-(1-(4-((Dimethylamino)methyl)-2-(trifluoromethyl)phenyl)-1H-imidazol-4-yl)-N-(1-(methylsulfonyl)piperidin-4-yl)-5-(trifluoromethyl)pyrimidin-2-amine] | ≤ 50
CS(=O)(=O)N1CCC(Nc2ncc(C(F)(F)F)c(-c3cn(-c4ccc(CN5CCC5)cc4C(F)(F)F)cn3)n2)CC1 [Example 251, 4-(1-(4-(Azetidin-1-ylmethyl)-2-(trifluoromethyl)phenyl)-1H-imidazol-4-yl)-N-(1-(methylsulfonyl)piperidin-4-yl)-5-(trifluoromethyl)pyrimidin-2-amine] | ≤ 50
Cc1nc(CN2CCC2)ccc1-n1cnc(-c2nc(NC3CCN(S(C)(=O)=O)CC3)ncc2C(F)(F)F)c1 [Example 252, 4-(1-(6-(Azetidin-1-ylmethyl)-2-methylpyridin-3-yl)-1H-imidazol-4-yl)-N-(1-(methylsulfonyl)piperidin-4-yl)-5-(trifluoromethyl)pyrimidin-2-amine] | ≤ 50
CN(C)Cc1ccc(-n2cnc(-c3nc(NC4CCN(S(C)(=O)=O)CC4)ncc3C(F)(F)F)c2)c(Cl)c1F [Example 253, 4-(1-(2-Chloro-4-((dimethylamino)methyl)-3-fluorophenyl)-1H-imidazol-4-yl)-N-(1-(methylsulfonyl)piperidin-4-yl)-5-(trifluoromethyl)pyrimidin-2-amine] | ≤ 50
CNCc1ccc(-n2cnc(-c3nc(NC4CCN(S(C)(=O)=O)CC4)ncc3C(F)(F)F)c2)c(C(F)(F)F)c1 [Example 254, 4-(1-(4-((Methylamino)methyl)-2-(trifluoromethyl)phenyl)-1H-imidazol-4-yl)-N-(1-(methylsulfonyl)piperidin-4-yl)-5-(trifluoromethyl)pyrimidin-2-amine] | ≤ 50
CCNCc1ccc(-n2cnc(-c3nc(NC4CCN(S(C)(=O)=O)CC4)ncc3C(F)(F)F)c2)c(C(F)(F)F)c1 [Example 255, 4-(1-(4-((Ethylamino)methyl)-2-(trifluoromethyl)phenyl)-1H-imidazol-4-yl)-N-(1-(methylsulfonyl)piperidin-4-yl)-5-(trifluoromethyl)pyrimidin-2-amine] | ≤ 50
CS(=O)(=O)N1CCC(Nc2ncc(C(F)(F)F)c(-c3cn(-c4ccc(CNC5CC5)cc4C(F)(F)F)cn3)n2)CC1 [Example 256] | ≤ 50
CCN(C)Cc1ccc(-n2cnc(-c3nc(NC4CCN(S(C)(=O)=O)CC4)ncc3C(F)(F)F)c2)c(C(F)(F)F)c1 [Example 257, 4-(1-(4-((Ethyl(methyl)amino)methyl)-2-(trifluoromethyl)phenyl)-1H-imidazol-4-yl)-N-(1-(methylsulfonyl)piperidin-4-yl)-5-(trifluoromethyl)pyrimidin-2-amine] | ≤ 50
CCN(CC)Cc1ccc(-n2cnc(-c3nc(NC4CCN(S(C)(=O)=O)CC4)ncc3C(F)(F)F)c2)c(C(F)(F)F)c1 [Example 258, 4-(1-(4-((Diethylamino)methyl)-2-(trifluoromethyl)phenyl)-1H-imidazol-4-yl)-N-(1-(methylsulfonyl)piperidin-4-yl)-5-(trifluoromethyl)pyrimidin-2-amine] | ≤ 50
CS(=O)(=O)N1CCC(Nc2ncc(C(F)(F)F)c(-c3cn(-c4ccc(CN5CC(O)C5)cc4C(F)(F)F)cn3)n2)CC1 [Example 259, 1-(4-(4-(2-((1-(Methylsulfonyl)piperidin-4-yl)amino)-5-(trifluoromethyl)pyrimidin-4-yl)-1H-imidazol-1-yl)-3-(trifluoromethyl)benzyl) azetidin-3-ol] | ≤ 50
CS(=O)(=O)N1CCC(Nc2ncc(C(F)(F)F)c(-c3cn(-c4ccc(CN5CC[C@H](O)C5)cc4C(F)(F)F)cn3)n2)CC1 [Example 260, (S)-1-(4-(4-(2-((1-(Methylsulfonyl)piperidin-4-yl)amino)-5-(trifluoromethyl)pyrimidin-4-yl)-1H-imidazol-1-yl)-(trifluoromethyl)benzyl) pyrrolidin-3-ol] | ≤ 50
C[C@]1(O)CCN(Cc2ccc(-n3cnc(-c4nc(NC5CCN(S(C)(=O)=O)CC5)ncc4C(F)(F)F)c3)c(C(F)(F)F)c2)C1 [Example 261, (S)-3-Methyl-1-(4-(4-(2-((1-(methylsulfonyl)piperidin-4-yl)amino)-5-(trifluoromethyl)pyrimidin-4-yl)-1H-imidazol-1-yl)-3-(trifluoromethyl)benzyl) pyrrolidin-3-ol] | ≤ 50
CC1(O)CCN(Cc2ccc(-n3cnc(-c4nc(NC5CCN(S(C)(=O)=O)CC5)ncc4C(F)(F)F)c3)c(C(F)(F)F)c2)CC1 [Example 262, 4-Methyl-1-(4-(4-(2-((1-(methylsulfonyl)piperidin-4-yl)amino)-5-(trifluoromethyl)pyrimidin-4-yl)-1H-imidazol-1-yl)-3-(trifluoromethyl)benzyl) piperidin-4-ol] | ≤ 50
Cc1nc(CN(C)C)ccc1-n1cnc(-c2nc(NC3CCN(S(C)(=O)=O)CC3)ncc2C(F)(F)F)c1 [Example 263, 4-(1-(6-((Dimethylamino)methyl)-2-methylpyridin-3-yl)-1H-imidazol-4-yl)-N-(1-(methylsulfonyl)piperidin-4-yl)-5-(trifluoromethyl)pyrimidin-2-amine] | ≤ 50
Cc1nc(CN2CC(C)C2)ccc1-n1cnc(-c2nc(NC3CCN(S(C)(=O)=O)CC3)ncc2C(F)(F)F)c1 [Example 264, 4-(1-(2-Methyl-6-((3-methylazetidin-1-yl)methyl)pyridin-3-yl)-1H-imidazol-4-yl)-N-(1-(methylsulfonyl)piperidin-4-yl)-5-(trifluoromethyl)pyrimidin-2-amine] | ≤ 50
